Where a name gives a salt, the structure may show the parent alone. Read-outs that look alike come from different tables or passages of the source.
Legend:
[1] = Observed steady-state PK of oral tramadol Q6h (threshold PK parameters); settings: for AUC / Cmax: human, plasma, po
[2] = system: animal model; settings: cited from earlier work
[3] = Example 5: multiple-dose 3-way crossover PK study of two IV regimens vs 100 mg oral Q6h; settings: for AUCtau 1: first dosing interval; for Cmax: human, plasma, iv, 50 mg, 50 mg IV regimen
Source text: The term “STD” as used herein means standard deviation. […] The term “Css” means steady-state concentration. The term “Cmax” means maximum concentration. The term “AUC” means area under the curve. […] The term “PIT” means peak to trough.

[4] = system: μ opioid; settings: animal model; cited from earlier work
[5] = system: postoperative pain; settings: IV or IM intermittent injection, dose titrated to pain response; cited from earlier work
[6] = system: experienced opioid abusers; settings: tramadol 100 and 200 mg IV, cited from earlier work; for Ratings of feel drug effect compared to placebo / Ratings of liking: morphine 10 and 20 mg IV over 5 minutes; for Ratings of feel drug effect compared to placebo: 10 experienced opioid abusers
[7] = cited from earlier work
[8] = in vivo; cited from earlier work
[9] = system: rats and dogs; settings: repeat-dose; cited from earlier work
[10] = mean cumulative doses 449 to 868.3 mg over 24, 36 and 48 h; cited from earlier work
[11] = oral administration; cited from earlier work
[12] = 60 mg oral tramadol dose, by extrapolation
[13] = 100 mg oral tramadol Q6h, steady-state, geometric mean, observed
[14] = 120 mg oral tramadol dose, by extrapolation
[15] = plasma 0-desmethyltramadol, tramadol 50 mg IV at h 0, 2, 4 then q4h, mean
[16] = plasma 0-desmethyltramadol, tramadol 75 mg IV at h 0, 3, 6 then q6h, mean
[17] = plasma 0-desmethyltramadol, tramadol 100 mg oral q6h, mean
[18] = plasma tramadol, 50 mg IV at h 0, 2, 4 then q4h, mean
[19] = plasma tramadol, 75 mg IV at h 0, 3, 6 then q6h, mean
[20] = plasma tramadol, 100 mg oral q6h, mean

With `CN(C)C[C@H]1CCCC[C@]1(O)c1cccc(O)c1` [M1, 0-desmethyltramadol] the “M1 AUC6” value ([1]; 50 mg oral tramadol dose) was 491 ng·h/mL, the “M1 Cmax” value ([1]; 50 mg oral tramadol dose) was 96 ng/mL and the “M1 AUC6” value [1, 12] was 589 ng·h/mL. For the same compound, the “M1 Cmax” value [1, 12] was 115 ng/mL, the “M1 AUC6” value [1, 13] was 668 ng·h/mL and the “M1 Cmax” value [1, 13] was 125 ng/mL. The “M1 AUC6” value [1, 14] was 802 ng·h/mL, the “M1 Cmax” value [1, 14] was 150 ng/mL and the “Potency in producing analgesia, times more potent than the parent compound” value [2] was 6 times. For the same compound, the “AUCtau 1” value [3, 15] was 39.93 ng·h/mL, the AUCtau n ([3]; plasma 0-desmethyltramadol, tramadol 50 mg IV at h 0, 2, 4 then q4h, last dosing interval, mean) was 355.6 ng·h/mL and the C48 [3, 15] was 81.7 ng/mL. For the same compound, the “AUCtau 1” value [3, 16] was 108.3 ng·h/mL, the C48 [3, 16] was 75.9 ng/mL and the “AUCtau 1” value [3, 17] was 272.1 ng·h/mL. The C48 [3, 17] was 111 ng/mL, the “Cmax(42-48)” value ([3]; plasma 0-desmethyltramadol, tramadol 100 mg oral q6h, steady-state, mean) was “about 146 ng/mL” and the “Potency in μ opioid binding, times more potent than the parent compound” value [4] was 200 times.

In the case of `CN1CC[C@]23c4c5ccc(O)c4O[C@H]2[C@@H](O)C=C[C@H]3[C@H]1C5` [morphine], the “Reduction of pain intensity after 4 to 6 hours” value [5] is listed as 69.8%, the “Ratings on the ARCI-MBG scale” value ([6]; morphine 20 mg IV over 5 minutes) is listed as “increased ratings on the ARCI-MBG scale” and the “Ratings of feel drug effect compared to placebo” value [6] is listed as “significantly increased ratings”. For the same compound, the Ratings of liking [6] was “significantly increased ratings”.

For `COc1cccc([C@]2(O)CCCC[C@H]2CN(C)C)c1` (racemic) [Tramadol, (±)cis-2-[(dimethylamino)methyl]-1-(3-methoxyphenyl) cyclohexanol hydrochloride], the AUC ([1]; 50 mg) was 1640 ng·h/mL, the Cmax ([1]; 50 mg) was 340 ng/mL and the Cmax ([1]; 60 mg) was 408 ng/mL. The AUC ([1]; 100 mg) was 3230 ng·h/mL, the Cmax ([1]; 100 mg) was 676 ng/mL and the AUC ([1]; 120 mg) was 3880 ng·h/mL. For the same compound, the Cmax ([1]; 120 mg) was 811 ng/mL, the AUC0-24h ([7]; 100 mg i.v.) was 3709 ± 977 ng·h/mL and the Vd ([7]; 100 mg i.v.) was 203 L. The t1/2 ([7]; 100 mg i.v.) was 5.2 h, the AUC0-24h ([7]; 100 mg p.o.) was 2488 ± 774 ng·h/mL and the Cmax ([7]; 100 mg p.o.) was 280 ± 49 ng/mL. The Vd ([7]; 100 mg p.o.) was 306 L, the “Distribution half-life, initial phase” value ([7]; IV administration) was 18.6 ± 10.2 min and the “Half-life of slower distribution phase” value ([7]; IV administration) was 1.7 ± 0.4 h. For the same compound, the “Absolute bioavailability with continuous dosing” value ([7]; oral, continuous dosing (Liao 1992)) was 90-100%, the Cmax ([3]; Mean Cmax after the first dose, plasma tramadol) was roughly 273 ng/mL and the Cmax ([3]; Mean Cmax after the second dose, plasma tramadol) was roughly 451 ng/mL. The Cmax ([3]; Mean Cmax concentration after the third administered dose, plasma tramadol) was roughly 666 ng/mL, the C48 [3, 18] was 448 ng/mL and the “Cmax(2-4)” value [3, 18] was 479 ng/mL. For the same compound, the “P/T Ratio First” value [3, 18] was 1.4566, the “P/T Ratio Last” value [3, 18] was 1.6370 and the C48 [3, 19] was 354 ng/mL. For the same compound, the “P/T Ratio First” value [3, 19] was 2.0658, the “P/T Ratio Last” value [3, 19] was 2.3692 and the C48 [3, 20] was 497 ng/mL. For the same compound, the “P/T Ratio First” value [3, 20] was 1.9824, the “P/T Ratio Last” value [3, 20] was 1.4400 and the “Time to reach steady-state” value [8] was 42 to 48 h. The “Dose with behavioral/clinical signs and convulsions” value [9] was greater than 25 mg/kg/day, the “Ratings of feel drug effect compared to placebo” value [6] was “significantly increased ratings” and the Ratings of liking [6] was “neither dose of tramadol increased ratings”. The Serious adverse effects [10] was “no serious adverse effects were observed” and the “Fertility or teratogenic effects” value [11] was “no safety concerns with respect to fertility or teratogenic effects”.

Reference: patent publication US20200383905A1 (priority 2015, published 2020)
